This note sets out measurements from patent US7950396B2, “Treatment for otitis externa” (priority 2006, dated 2011).

Assay [1] concerns E. fecalis. In words: Photodisinfection of E. fecalis biofilms in vitro (methylene blue plus Periowave laser). In kind it is cell-based, Enterococcus fecalis. To be noted: methylene blue and low power laser. The text has this:
(§1) Photodisinfection treatments using methods contemplated by the present invention have been tested against MRSA, Escherichia coli (E. coli), and Enterococcus fecalis (E. fecalis) in vitro and reached high levels of disinfection in within seconds to one minute. Photosensitizing composition comprising of methylene blue at various concentrations ranging from about 0.005 wt % to 0.1 wt % was applied to biofilms of MRSA, E. coli and E. fecalis for about ten seconds. These biofilms were then illuminated by a laser light system at a wavelength of about 665 nm to about 675 nm for a period from about 0 seconds to about 60 seconds (e.g., accumulated energy level of about 0 J/cm^2 to about 9 J/cm^2). The laser light system used was the Periowave™ system which includes a low-intensity laser with power at about 240 mW and the optical probe described in PCT Patent Publication No. WO2006115761.

In assay [2] the test system is otitis externa. Nature of the assay: Photodisinfection of otitis externa treatment site (Examples V to VII). In kind it is in vivo. As to the method: A photosensitizing composition comprising of methylene blue at a concentration of about 0.1 wt % is applied to the otitis externa treatment site. Light at a wavelength range from about 650 nm to about 680 nm is applied to the photosensitizing composition located within the otitis externa treatment site for a period from about 6 minutes to about 10 minutes using a laser with power at about 80 mW. The otitis externa was ameliorated.
A photosensitizing composition comprising of methylene blue at a concentration range of from about 0.001 wt % to about 0.1 wt % is applied to the otitis externa treatment site. Light at a wavelength range from about 650 nm to about 680 nm is applied to the photosensitizing composition located within the treatment site for a period from about 1 minute to about 20 minutes using a laser with power at a range from about 50 mW to about 300 mW. The otitis externa was ameliorated.
A photosensitizing composition comprising of toluidine blue at a concentration range of from about 0.001% wt % to about 0.1 wt % is applied to the otitis externa treatment site. Light at a wavelength range from about 620 nm to about 650 nm is applied to the photosensitizing composition located within the otitis externa treatment site for a period from about 1 minute to about 20 minutes using a laser with power at a range from about 50 mW to about 300 mW. The otitis externa was ameliorated.
For Examples V to VII, it was shown that there is a general inverse relationship between (1) the photosensitizer concentration and (2) the photodisinfection treatment time and/or the amount of power required for the light source. For example, higher concentration of photosensitizer requires less treatment time and/or lower light source power. Conversely, lower concentration of photosensitizer requires longer treatment time and/or higher light source power. Also, less treatment time requires higher concentration of photosensitizer and/or higher light source power.

The subject of assay [3] is MRSA. In words: Photodisinfection of MRSA biofilms in vitro (methylene blue plus Periowave laser). It is filed as cell-based, Methicillin-resistant Staphylococcus aureus.
Source text: as §1

Assay [4] concerns MRSA. In words: SEM evaluation of MRSA biofilms after photodisinfection. In kind it is cell-based, Methicillin-resistant Staphylococcus aureus. Conditions: about 0.1 wt % methylene blue, about 10 s contact, 665-675 nm for about 30 seconds, Periowave laser. How it is done: Biofilms heavily colonized with one to four layers of MRSA organisms were contacted with a photosensitizing composition comprising methylene blue at a concentration of about 0.1 wt % for about 10 seconds and then illuminated at a wavelength of about 665 nm to about 675 nm for a period from about 30 seconds using the Periowave™ laser. Thereafter, these biofilms and the controlled MRSA biofilms (e.g., no photodisinfection treatment) were incubated overnight in 0.9 wt % saline and then fixed in 10 wt % Formalin for scanning electron microscope (SEM) evaluation.

The subject of assay [5] is E. coli. Nature of the assay: SEM evaluation of E. coli biofilms after photodisinfection. It is filed as cell-based, Escherichia coli. To be noted: about 0.1 wt % methylene blue, about 10 s contact, 665-675 nm for about 30 seconds, Periowave laser. As to the method: Biofilms heavily colonized with one to three layers of Escherichia coli (E. coli) organisms were contacted with a photosensitizing composition comprising methylene blue at a concentration of about 0.1 wt % for about 10 seconds and then illuminated at a wavelength of about 665 nm to about 675 nm for a period from about 30 seconds using the Periowave™ laser. Thereafter, these biofilms and the controlled E. coli biofilms (e.g., no photodisinfection treatment) were incubated for three hours in 0.9% saline and then fixed in 10% Formalin for scanning electron microscope (SEM) evaluation.

For assay [6], the system named is otitis externa. In words: Study on patients suffering otitis externa (photodisinfection, Periowave laser). It is filed as in vivo, human. As to the method:
A study was conducted on patients suffering otitis externa. During the study, a photosensitizing composition comprising of methylene blue at a concentration of about 0.01 wt % was applied using a cotton swab to the treatment site as shown in FIG. 37. Thereafter and referring to FIGS. 38-39, light at a wavelength range from about 665 nm to about 675 nm was applied to the photosensitizing composition located within the treatment site 64 for a period from about 3 minutes to about 5 minutes (3-5 repetitive one minute cycles) using the Periowave™ laser light system.

The subject of assay [7] is E. coli. Nature of the assay: Photodisinfection of E. coli biofilms in vitro (methylene blue plus Periowave laser). In kind it is cell-based, Escherichia coli.
Source text: as §1

Setting [8] is: at least 0.02 wt % methylene blue, about 10 s contact, laser 665-675 nm for at least 15 seconds (at least 2.25 J/cm^2), 240 mW.
Where [9] appears, read: methylene blue and low power laser.

The structures appear in SMILES notation.

For the molecule `CN(C)c1ccc2nc3ccc(=[N+](C)C)cc-3sc2c1` [methylene blue], the “elimination of E. Fecalis by photodisinfection” value in assay [1] was “effectively eliminated”. For the same molecule, the “outcome of otitis externa” value in assay [2] (about 0.001 to 0.1 wt %, 650-680 nm for about 1 to 20 minutes, laser about 50 to 300 mW) was “ameliorated”; in assay [2] (about 0.1 wt %, 650-680 nm for about 6 to 10 minutes, laser about 80 mW), “ameliorated”. The “reduction of MRSA (logs)” value in assay [3] (setting [8]) is given as “at least three logs”. Besides, in assay [3] (setting [9]), the “elimination of MRSA by photodisinfection” value is on record as “effectively eliminated”. Besides, in assay [4], the “reduction of MRSA in SEM photograph vs controlled biofilm” value was “substantial reduction of MRSA”. The “reduction of E. coli in SEM photograph vs controlled biofilm” value in assay [5] is recorded as “substantial reduction of E. coli”. In assay [6] (about 0.01 wt % methylene blue by cotton swab, 665-675 nm for about 3 to 5 minutes (3-5 one minute cycles)), the “outcome of otitis externa, many patients” value is on record as “ameliorated”. The “outcome of otitis externa, patients with severe otitis externa” value in assay [6] (same protocol, about 2 to about 5 additional treatments over about one to two weeks) is “also ameliorated”. The “reduction of E. coli (logs)” value in assay [7] (setting [8]) is listed as “at least three logs”. The “elimination of E. coli by photodisinfection” value in assay [7] (setting [9]) is on record as “effectively eliminated”.

`Cc1cc2nc3ccc(N(C)C)cc3[s+]c2cc1N.[Cl-]` [toluidine blue]: the “outcome of otitis externa” value in assay [2] (about 0.001 to 0.1 wt %, 620-650 nm for about 1 to 20 minutes, laser about 50 to 300 mW) is reported as “ameliorated”.
